{
  "source": "patent US20220175768A1",
  "about": "“FGFR TYROSINE KINASE INHIBITORS FOR THE TREATMENT OF UROTHELIAL CARCINOMA” (Janssen Pharmaceutica NV, priority 2019, published 2022)",
  "conditions": "8 mg continuous, selected regimen 3 (n = 99)",
  "description": "Study treatment was administered on 28-day cycles. Prior to interim analysis 1, there were 2 treatment regimens. Patients were randomized 1:1 to 28-day cycles to the following 2 regimens until a regimen was selected for further study: Regimen 1 (10 mg once daily intermittent (7 days on/7 days); Regimen 2 (6 mg once daily continuous). Randomization was stratified according to performance status (0 to 1 vs. 2), hemoglobin value (<10 vs. ≥10 g per dl), FGFR alteration type (mutation vs. fusion), prior treatment status (chemotherapy-resistant vs. chemotherapy naïve), and disease distribution (presence or absence of visceral [liver, lung, bone] metastases). Starting dose selection was based on phase 1 efficacy and tolerability.\nThus, after interim analysis, this became a single-arm study. […] Treatment continued until disease progression or unacceptable adverse event(s) per investigator.\nAll objective responses required confirmation by an additional investigator assessment within 4 to 6 weeks of first assessment. Disease evaluations for regimen 3 were also performed by an independent radiographic review committee. […] Safety was evaluated based on clinical laboratory tests, physical exams, electrocardiograms, and ophthalmology examinations. Adverse events and abnormalities were assessed by investigator and graded per NCI CTCAE v.4.0\nProphylactic measures were taken to minimize risk of common adverse events related to FGFR inhibition. To reduce risk of hyperphosphatemia, a low-phosphate diet was recommended for all patients (600 to 800 mg of dietary phosphate intake per day). To reduce the risk of skin effects, the application of alcohol-free emollient moisturizing cream and avoidance of unnecessary exposure to sunlight, soap, perfumed products, and hot baths was recommended. Patients were asked to keep their fingers and toes clean and nails trimmed to reduce risk of nail effects.\nAdditional ophthalmology examinations were performed if clinically indicated.",
  "data": [
    {"smiles": "COc1cc(OC)cc(N(CCNC(C)C)c2ccc3ncc(-c4cnn(C)c4)nc3c2)c1", "note": "[erdafitinib, N-(3,5-dimethoxy-phenyl)-N′-(1-methylethyl)-N-[3-(1-methyl-1H-pyrazol-4-yl)quinoxalin-6-yl]ethane-1,2-diamine]", "values": [
      {"measurement": "Patients with Alanine aminotransferase increased, Grade 1", "result": "13 (13) no. (%)"},
      {"measurement": "Patients with Alanine aminotransferase increased, Grade 2", "result": "2 (2) no. (%)"},
      {"measurement": "Patients with Alanine aminotransferase increased, Grade ≥3", "result": "2 (2) no. (%)"},
      {"measurement": "Patients with Alopecia, Any grade", "result": "29 (29) no. (%)"},
      {"measurement": "Patients with Alopecia, Grade 1", "result": "23 (23) no. (%)"},
      {"measurement": "Patients with Alopecia, Grade 2", "result": "6 (6) no. (%)"},
      {"measurement": "Patients with Alopecia, Grade ≥3", "result": "0 no. (%)"},
      {"measurement": "Patients with Anemia, Any grade", "result": "20 (20) no. (%)"},
      {"measurement": "Patients with Anemia, Grade 1", "result": "9 (9) no. (%)"},
      {"measurement": "Patients with Anemia, Grade 2", "result": "7 (7) no. (%)"},
      {"measurement": "Patients with Anemia, Grade ≥3", "result": "4 (4) no. (%)"},
      {"measurement": "Patients with Arthralgia, Any grade", "result": "8 (8) no. (%)"},
      {"measurement": "Patients with Arthralgia, Grade 1", "result": "5 (5) no. (%)"},
      {"measurement": "Patients with Arthralgia, Grade 2", "result": "3 (3) no. (%)"},
      {"measurement": "Patients with Arthralgia, Grade ≥3", "result": "0 no. (%)"},
      {"measurement": "Patients with Aspartate aminotransferase increased, Any grade", "result": "10 (10) no. (%)"},
      {"measurement": "Patients with Aspartate aminotransferase increased, Grade 1", "result": "8 (8) no. (%)"},
      {"measurement": "Patients with Aspartate aminotransferase increased, Grade 2", "result": "2 (2) no. (%)"},
      {"measurement": "Patients with Aspartate aminotransferase increased, Grade ≥3", "result": "0 no. (%)"},
      {"measurement": "Patients with Asthenia, Any grade", "result": "20 (20) no. (%)"},
      {"measurement": "Patients with Asthenia, Grade 1", "result": "2 (2) no. (%)"},
      {"measurement": "Patients with Asthenia, Grade 2", "result": "11 (11) no. (%)"},
      {"measurement": "Patients with Asthenia, Grade ≥3", "result": "7 (7) no. (%)"},
      {"measurement": "Patients with Back pain, Any grade", "result": "5 (5) no. (%)"},
      {"measurement": "Patients with Back pain, Grade 1", "result": "4 (4) no. (%)"},
      {"measurement": "Patients with Back pain, Grade 2", "result": "1 (1) no. (%)"},
      {"measurement": "Patients with Back pain, Grade ≥3", "result": "0 no. (%)"},
      {"measurement": "Patients with Blood creatinine increased, Any grade", "result": "10 (10) no. (%)"},
      {"measurement": "Patients with Blood creatinine increased, Grade 1", "result": "5 (5) no. (%)"},
      {"measurement": "Patients with Blood creatinine increased, Grade 2", "result": "5 (5) no. (%)"},
      {"measurement": "Patients with Blood creatinine increased, Grade ≥3", "result": "0 no. (%)"},
      {"measurement": "Patients with Conjunctivitis, Any grade", "result": "13 (13) no. (%)"},
      {"measurement": "Patients with Conjunctivitis, Grade 1", "result": "6 (6) no. (%)"},
      {"measurement": "Patients with Conjunctivitis, Grade 2", "result": "7 (7) no. (%)"},
      {"measurement": "Patients with Conjunctivitis, Grade ≥3", "result": "0 no. (%)"},
      {"measurement": "Patients with Constipation, Any grade", "result": "28 (28) no. (%)"},
      {"measurement": "Patients with Constipation, Grade 1", "result": "19 (19) no. (%)"},
      {"measurement": "Patients with Constipation, Grade 2", "result": "8 (8) no. (%)"},
      {"measurement": "Patients with Constipation, Grade ≥3", "result": "1 (1) no. (%)"},
      {"measurement": "Patients with Decreased appetite, Any grade", "result": "38 (38) no. (%)"},
      {"measurement": "Patients with Decreased appetite, Grade 1", "result": "18 (18) no. (%)"},
      {"measurement": "Patients with Decreased appetite, Grade 2", "result": "20 (20) no. (%)"},
      {"measurement": "Patients with Decreased appetite, Grade ≥3", "result": "0 no. (%)"},
      {"measurement": "Patients with Diarrhea, Any grade", "result": "50 (51) no. (%)"},
      {"measurement": "Patients with Diarrhea, Grade 1", "result": "31 (31) no. (%)"},
      {"measurement": "Patients with Diarrhea, Grade 2", "result": "15 (15) no. (%)"},
      {"measurement": "Patients with Diarrhea, Grade ≥3", "result": "4 (4) no. (%)"},
      {"measurement": "Patients with Dry eye, Any grade", "result": "19 (19) no. (%)"},
      {"measurement": "Patients with Dry eye, Grade 1", "result": "14 (14) no. (%)"},
      {"measurement": "Patients with Dry eye, Grade 2", "result": "4 (4) no. (%)"},
      {"measurement": "Patients with Dry eye, Grade ≥3", "result": "1 (1) no. (%)"},
      {"measurement": "Patients with Dry mouth, Any grade", "result": "45 (46) no. (%)"},
      {"measurement": "Patients with Dry mouth, Grade 1", "result": "34 (34) no. (%)"},
      {"measurement": "Patients with Dry mouth, Grade 2", "result": "11 (11) no. (%)"},
      {"measurement": "Patients with Dry mouth, Grade ≥3", "result": "0 no. (%)"},
      {"measurement": "Patients with Dry skin, Any grade", "result": "32 (32) no. (%)"},
      {"measurement": "Patients with Dry skin, Grade 1", "result": "24 (24) no. (%)"},
      {"measurement": "Patients with Dry skin, Grade 2", "result": "8 (8) no. (%)"},
      {"measurement": "Patients with Dry skin, Grade ≥3", "result": "0 no. (%)"},
      {"measurement": "Patients with Dysgeusia, Any grade", "result": "37 (37) no. (%)"},
      {"measurement": "Patients with Dysgeusia, Grade 1", "result": "23 (23) no. (%)"},
      {"measurement": "Patients with Dysgeusia, Grade 2", "result": "13 (13) no. (%)"},
      {"measurement": "Patients with Dysgeusia, Grade ≥3", "result": "1 (1) no. (%)"},
      {"measurement": "Patients with Dyspepsia, Any grade", "result": "11 (11) no. (%)"},
      {"measurement": "Patients with Dyspepsia, Grade 1", "result": "10 (10) no. (%)"},
      {"measurement": "Patients with Dyspepsia, Grade 2", "result": "1 (1) no. (%)"},
      {"measurement": "Patients with Dyspepsia, Grade ≥3", "result": "0 no. (%)"},
      {"measurement": "Patients with Dyspnea, Any grade", "result": "8 (8) no. (%)"},
      {"measurement": "Patients with Dyspnea, Grade 1", "result": "4 (4) no. (%)"},
      {"measurement": "Patients with Dyspnea, Grade 2", "result": "2 (2) no. (%)"},
      {"measurement": "Patients with Dyspnea, Grade ≥3", "result": "2 (2) no. (%)"},
      {"measurement": "Patients with Fatigue, Any grade", "result": "32 (32) no. (%)"},
      {"measurement": "Patients with Fatigue, Grade 1", "result": "12 (12) no. (%)"},
      {"measurement": "Patients with Fatigue, Grade 2", "result": "18 (18) no. (%)"},
      {"measurement": "Patients with Fatigue, Grade ≥3", "result": "2 (2) no. (%)"},
      {"measurement": "Patients with Hand-foot syndrome, Any grade", "result": "23 (23) no. (%)"},
      {"measurement": "Patients with Hand-foot syndrome, Grade 1", "result": "6 (6) no. (%)"},
      {"measurement": "Patients with Hand-foot syndrome, Grade 2", "result": "12 (12) no. (%)"},
      {"measurement": "Patients with Hand-foot syndrome, Grade ≥3", "result": "5 (5) no. (%)"},
      {"measurement": "Patients with Hematuria, Any grade", "result": "10 (10) no. (%)"},
      {"measurement": "Patients with Hematuria, Grade 1", "result": "7 (7) no. (%)"},
      {"measurement": "Patients with Hematuria, Grade 2", "result": "1 (1) no. (%)"},
      {"measurement": "Patients with Hematuria, Grade ≥3", "result": "2 (2) no. (%)"},
      {"measurement": "Patients with Hyperphosphatemia, Any grade", "result": "76 (77) no. (%)"},
      {"measurement": "Patients with Hyperphosphatemia, Grade 1", "result": "53 (54) no. (%)"},
      {"measurement": "Patients with Hyperphosphatemia, Grade 2", "result": "21 (21) no. (%)"}
    ]}
  ]
}
